Measurements reported in patent US20150056702A1, “METHOD AND KIT FOR CULTURING STEM CELLS” (China Medical University, priority 2013, published 2015).

System: ES cells
Assay: DNA microarray analysis of ES cells
Assay type: cell-based, mouse
Details: ES cells, 24 hours
Procedure: The DNA microarray analysis was used to determine whether the gene expression profiles in various pathways in cells will be affected when the cells were cultured by a BP-containing medium.
An experimental group medium (BP10 or BP 40), a LIF-containing medium (without BP), and a control group medium (without BP) were used respectively in a 6-well culture dish to culture ES cells with an initial density of 1×10^4 per well for 24 hours. Next, performing total RNA extraction and the obtained RNA was labeled with Cy3. Samples were hybridized to Agilent Mouse G3 Whole Genome Oligo 86×60K microarrays (Agilent) according to the manufacturer's instructions. Arrays were scanned with a Microarray Scanner System and data was analyzed by using a GeneSpring GX software (Agilent).
According to the related research at present, the Jak-Stat signaling pathway is the most relevant in terms of stem cell self-renewal and pluripotency maintenance.

[1] = BP10 medium (about 10 μg BP/ml)

Q: What does the source list for `CCCC=C1OC(=O)c2ccccc21` [BP, n-butylidenephthalide]?
A: Amino acid metabolism: % of genes regulated [1]: 4.3%; Amino acid metabolism: D, number of down-regulated genes [1]: 1; Amino acid metabolism: I, number of up-regulated genes [1]: 0; Amino acid metabolism: No. (regulated genes/genes of function) [1]: 1/23; Apoptosis: % of genes regulated [1]: 11.7%; Apoptosis: D, number of down-regulated genes [1]: 8; Apoptosis: I, number of up-regulated genes [1]: 3; Apoptosis: No. (regulated genes/genes of function) [1]: 11/94; Calcium signaling pathway: % of genes regulated [1]: 21.9%; Calcium signaling pathway: D, number of down-regulated genes [1]: 28; Calcium signaling pathway: I, number of up-regulated genes [1]: 4; Calcium signaling pathway: No. (regulated genes/genes of pathway) [1]: 32/146; Cell adhesion molecules: % of genes regulated [1]: 22%; Cell adhesion molecules: D, number of down-regulated genes [1]: 20; Cell adhesion molecules: I, number of up-regulated genes [1]: 13; Cell adhesion molecules: No. (regulated genes/genes of function) [1]: 33/150; Cell communication: % of genes regulated [1]: 21.7%; Cell communication: D, number of down-regulated genes [1]: 17; Cell communication: I, number of up-regulated genes [1]: 3; Cell communication: No. (regulated genes/genes of function) [1]: 20/92; Cell cycle: % of genes regulated [1]: 2.5%; Cell cycle: D, number of down-regulated genes [1]: 4; Cell cycle: I, number of up-regulated genes [1]: 0; Cell cycle: No. (regulated genes/genes of function) [1]: 4/163; ECM-receptor interaction: % of genes regulated [1]: 28.4%; ECM-receptor interaction: D, number of down-regulated genes [1]: 18; ECM-receptor interaction: I, number of up-regulated genes [1]: 3; ECM-receptor interaction: No. (regulated genes/genes of pathway) [1]: 21/74; Insulin signaling pathway: % of genes regulated [1]: 9.8%; Insulin signaling pathway: D, number of down-regulated genes [1]: 7; Insulin signaling pathway: I, number of up-regulated genes [1]: 3; Insulin signaling pathway: No. (regulated genes/genes of pathway) [1]: 10/102; JAK-STAT signaling pathway: % of genes regulated [1]: 27.9%; JAK-STAT signaling pathway: D, number of down-regulated genes [1]: 30; JAK-STAT signaling pathway: I, number of up-regulated genes [1]: 9; JAK-STAT signaling pathway: No. (regulated genes/genes of pathway) [1]: 39/140; Lipid metabolism: % of genes regulated [1]: 16.5%; Lipid metabolism: D, number of down-regulated genes [1]: 15; Lipid metabolism: I, number of up-regulated genes [1]: 3; Lipid metabolism: No. (regulated genes/genes of function) [1]: 18/109; MAPK signaling: % of genes regulated [1]: 10.6%; MAPK signaling: D, number of down-regulated genes [1]: 17; MAPK signaling: I, number of up-regulated genes [1]: 7; MAPK signaling: No. (regulated genes/genes of pathway) [1]: 24/227; PPAR signaling pathway: % of genes regulated [1]: 37.8%; PPAR signaling pathway: D, number of down-regulated genes [1]: 14; PPAR signaling pathway: I, number of up-regulated genes [1]: 14; PPAR signaling pathway: No. (regulated genes/genes of pathway) [1]: 28/74; TGF-β signaling pathway: % of genes regulated [1]: 11.1%; TGF-β signaling pathway: D, number of down-regulated genes [1]: 2; TGF-β signaling pathway: I, number of up-regulated genes [1]: 3; TGF-β signaling pathway: No. (regulated genes/genes of pathway) [1]: 5/45; VEGF signaling pathway: % of genes regulated [1]: 6.5%; VEGF signaling pathway: D, number of down-regulated genes [1]: 0; VEGF signaling pathway: I, number of up-regulated genes [1]: 2; VEGF signaling pathway: No. (regulated genes/genes of pathway) [1]: 2/31; Wnt signaling pathway: % of genes regulated [1]: 10.6%; Wnt signaling pathway: D, number of down-regulated genes [1]: 5; Wnt signaling pathway: I, number of up-regulated genes [1]: 2; Wnt signaling pathway: No. (regulated genes/genes of pathway) [1]: 7/66; focal adhesion: % of genes regulated [1]: 11%; focal adhesion: D, number of down-regulated genes [1]: 16; focal adhesion: I, number of up-regulated genes [1]: 3; focal adhesion: No. (regulated genes/genes of function) [1]: 19/173; tight junction: % of genes regulated [1]: 13.6%; tight junction: D, number of down-regulated genes [1]: 7; tight junction: I, number of up-regulated genes [1]: 2; tight junction: No. (regulated genes/genes of function) [1]: 9/66; Amino acid metabolism: % of genes regulated (BP40 medium (about 40 μg BP/ml)): 8.7%
